The record followed here is publication PMC11769294, “(E)-1-(3-(3-Hydroxy-4-Methoxyphenyl)-1-(3,4,5-Trimethoxyphenyl)allyl)-1H-1,2,4-Triazole and Related Compounds: Their Synthesis and Biological Evaluation as Novel Antimitotic Agents Targeting Breast Cancer” (Pharmaceuticals, 2025).

One experiment addresses CYP19 (aromatase) (Homo sapiens, UniProt P11511). Kind of experiment: Cytochrome P450 assay (DBF fluorescence). The settings on record: read-out: inhibition of CYP19.
In experiment [1] the test system is tubulin in MCF-7 breast cancer cells. Kind of experiment: Immunofluorescence confocal microscopy of microtubules. It counts as cell-based, human. To be noted: 16 h, 22b 10 μM, paclitaxel and phenstatin 1 μM. Here is the method:
Briefly, the MCF-7 cells were seeded at a density of 1 × 10^5 cells/mL on eight chamber glass slides (BD Biosciences). […] The cells were then washed in PBS, fixed for 20 min with 4% paraformaldehyde in PBS, and permeabilized in 0.5% Triton X-100. […] Images of the cells were obtained using Leica SP8 confocal microscopy (Wetzlar, Germany) with Leica application suite X software (Wetzlar, Germany). Experiments were performed on three independent occasions.
The micrograph images were obtained with Leica SP8 confocal microscopy utilizing Leica application suite X software. Representative confocal images of three separate experiments are shown. The scale bar indicates 25 μm.

Experiment [2] has as its system purified bovine brain tubulin. The experiment in a line: Tubulin polymerization assay. It counts as biochemical. To be noted: after 60 min. As to the method:
The triazole 22b was selected for evaluation in the tubulin polymerization assay. Following the protocol previously described, the polymerization of purified bovine tubulin was monitored using a tubulin polymerization assay kit, BK006, (Cytoskeleton Inc., Denver, CO, USA). The assay was carried out using the purified bovine brain tubulin. Tubulin polymerization was determined spectrophotometrically by monitoring the change in turbidity since light is scattered proportionally to the concentration of polymerized microtubules in the assay. Lyophilized tubulin [128] (Cytoskeleton, Denver, CO, USA) (>99%, 3 mg/mL) was re-suspended in ice-cold G-PEM buffer (80 mM PIPES pH 6.9, […], 1 mM EGTA, 1 mM GTP, 10.2% (v/v) glycerol) and added to wells on a half volume 96-well plate containing the designated concentration of drug (10 or 30 μM). […] Samples were mixed well and the tubulin assembly was monitored at 340 nm at 30 s intervals for 60 min at 37 °C in a Spectramax 340PC spectrophotometer (Molecular Devices, San Jose, CA, USA).
Figure 13 Inhibition of tubulin polymerization in vitro by compound 22b. […] The progress of the tubulin polymerization reaction at 37 °C was monitored at 340 nm in a Spectramax 340PC spectrophotometer at 30 s intervals for 60 min. Fold inhibition of tubulin polymerization can be calculated from the Vmax value for each reaction. […]

The next experiment deals with HL-60 cells. The experiment in a line: alamarBlue cell viability assay. It counts as cell-based. The settings on record: Homo sapiens. As to the method:
Figure 7 Preliminary cell viability data for (A) triazoles 22b–d, 22f, 22g and imidazole 23d and (B) triazoles 26a–e and imidazoles 27a, 27b, 27e, 27f, 27h and 27i in HL-60 cells. Cell proliferation of HL-60 cells was determined with an alamarBlue assay (seeding density 2.5 × 10^4 cells/mL per well for 96-well plates). Compound concentrations of either 1 or 0.1 μM for 72 h were used to treat the cells (in triplicate) with control wells containing vehicle ethanol (1% v/v). The mean value ± SEM for three independent experiments is shown. The positive control was CA-4 (1.0 μM and 0.1 μM).
HL-60 cells were suspension cells and the seeding density for the viability assay was 25,000 cells/mL. […]
The biochemical assays were performed in triplicate and on at least three independent occasions to facilitate the determination of mean values. […] Adherent cells such as MCF-7, MDA-MB-231, and MCF-10A were trypsinized to detach them from the flask, counted as previously described, and seeded in 96 well plates with a seeding density of 25,000 cells /mL (200 µL of suspension in each well so that the final number of cells per well was 5000) and 1 × 10^4 cells/well seeding density for suspension HL-60 cells. […] After 72 h, the change in color was measured by spectrofluorimetry at an excitation wavelength of 544 nm and emission wavelength of 590 nm. […]

The next experiment addresses CYP1A1 (Homo sapiens, UniProt P04798). The experiment in a line: Cytochrome P450 assay (DBF fluorescence).

Sequence of CYP19 (aromatase) (P11511 whole entry): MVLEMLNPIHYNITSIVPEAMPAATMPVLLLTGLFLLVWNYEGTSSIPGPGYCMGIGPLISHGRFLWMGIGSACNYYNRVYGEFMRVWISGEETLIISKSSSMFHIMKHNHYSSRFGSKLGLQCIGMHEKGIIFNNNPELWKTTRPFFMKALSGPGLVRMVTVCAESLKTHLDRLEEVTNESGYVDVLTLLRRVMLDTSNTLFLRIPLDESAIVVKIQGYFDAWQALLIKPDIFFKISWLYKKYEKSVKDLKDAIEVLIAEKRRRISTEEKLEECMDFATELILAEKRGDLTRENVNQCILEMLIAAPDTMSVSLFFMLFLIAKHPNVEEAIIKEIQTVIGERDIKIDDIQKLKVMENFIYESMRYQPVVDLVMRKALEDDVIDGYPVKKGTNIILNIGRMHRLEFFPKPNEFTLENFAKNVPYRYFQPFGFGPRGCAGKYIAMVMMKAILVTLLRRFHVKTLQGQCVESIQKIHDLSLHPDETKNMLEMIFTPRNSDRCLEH
Sequence of CYP1A1 (P04798 whole entry): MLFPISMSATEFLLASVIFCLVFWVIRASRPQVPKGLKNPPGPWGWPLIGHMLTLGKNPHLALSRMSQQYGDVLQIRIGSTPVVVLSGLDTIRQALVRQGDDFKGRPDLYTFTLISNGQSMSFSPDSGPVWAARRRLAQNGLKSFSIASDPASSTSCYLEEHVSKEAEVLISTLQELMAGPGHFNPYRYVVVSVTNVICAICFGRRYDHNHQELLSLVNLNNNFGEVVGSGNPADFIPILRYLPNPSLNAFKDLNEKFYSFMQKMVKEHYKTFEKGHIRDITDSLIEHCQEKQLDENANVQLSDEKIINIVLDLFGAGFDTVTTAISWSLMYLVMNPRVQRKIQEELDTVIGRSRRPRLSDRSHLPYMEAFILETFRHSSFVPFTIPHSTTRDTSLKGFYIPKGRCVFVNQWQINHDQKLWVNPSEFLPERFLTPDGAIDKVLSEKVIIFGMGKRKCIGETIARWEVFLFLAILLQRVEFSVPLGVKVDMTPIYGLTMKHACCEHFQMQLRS

On to `COc1ccc(/C=C/C(c2cc(OC)c(OC)c(OC)c2)n2cncn2)cc1O` (stereo not shown) [Compound 22b, (E)-5-(3-(1H-1,2,4-Triazol-1-yl)-3-(3,4,5-trimethoxyphenyl)prop-1-en-1-yl)-2-methoxyphenol], for which, on CYP19 (aromatase), the inhibition at 50 µM amounted to 93%. Further, the “effect on microtubule network” value in experiment [1] is recorded as “disorganized microtubule network structure similar to that observed with phenstatin, together with multinucleation”. For the same compound, the figures for the “reduction in the polymer mass vs vehicle” value in experiment [2] (10 μM) and in experiment [2] (30 μM) were 1.5 fold and 5 fold, respectively. Further, the IC50 is 370 nM with HL-60 cells, 366 ± 130 nM with HL-60 cells (72 h) and > 53000 nM against CYP1A1.
